Source: US20250129027A1 (APOGEE PHARMACEUTICALS, INC., priority 2023, published 2025)

Tests used:
human recombinant FAAH = human recombinant FAAH (Homo sapiens (Human), UniProt O00519); assay: In vitro inhibition of FAAH activity (fluorescent inhibitor screening kit, AMC arachidonoyl amide); format: biochemical; details: human recombinant FAAH; read-out: Inhibition on FAAH activity (IC50)
Excerpt: The inhibitory effect of compounds of Formula (I-IV) on the activity of human recombinant FAAH was studied using a commercial inhibitor screening kit (Cayman Chemicals, Godlewski et al., 2010 [19]). In brief, FAAH hydrolyzes AMC arachidonoyl amide resulting in the release of the fluorescent product, while the inhibitor will inhibit the FAAH activity and thus reduce the fluorescent signal. The resulting fluorophore can be analyzed using an excitation wavelength of 340-360 nm and an emission wavelength of 450-465 nm by a plate reader (Synergy H1, Biotek). Inhibition is calculated as a percentage of the treated sample over the non-treated control based on the signal values, and where possible, a range of concentrations of compounds was tested to find the IC50 values (i.e. the concentration of compound that inhibited 50% FAAH activity).

human recombinant MAGL = human recombinant MAGL (Homo sapiens (Human), UniProt Q99685); assay: In vitro inhibition of MAGL activity (inhibitor screening kit, 4-nitrophenylacetate); format: biochemical; details: human recombinant MAGL
Method: The inhibitory effect of the compounds on activity of human recombinant MAGL was also studied using a commercial inhibitor screening kit (Cayman Chemicals). In brief, MAGL hydrolyzes 4-nitrophenylacetate resulting in a yellow product, 4-nitrophenol with an absorbance at 405-412 nm, while the inhibitor will inhibit the MAGL activity and thus reduce the yellow signal. The absorbance of the yellow product can be analyzed using the plate reader. Inhibition is calculated as a percentage of the treated sample over the non-treated MAGL control based on the signal values.

Sequence of human recombinant MAGL (Q99685 whole entry): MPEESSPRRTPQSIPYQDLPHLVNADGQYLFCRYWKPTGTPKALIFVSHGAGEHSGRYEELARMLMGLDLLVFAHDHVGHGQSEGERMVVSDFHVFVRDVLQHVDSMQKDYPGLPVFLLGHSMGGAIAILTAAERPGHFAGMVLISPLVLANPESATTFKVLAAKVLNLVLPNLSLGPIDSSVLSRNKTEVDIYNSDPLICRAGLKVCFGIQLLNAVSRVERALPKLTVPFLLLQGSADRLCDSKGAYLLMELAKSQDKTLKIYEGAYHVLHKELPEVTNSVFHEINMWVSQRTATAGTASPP
Sequence of human recombinant FAAH (O00519 whole entry): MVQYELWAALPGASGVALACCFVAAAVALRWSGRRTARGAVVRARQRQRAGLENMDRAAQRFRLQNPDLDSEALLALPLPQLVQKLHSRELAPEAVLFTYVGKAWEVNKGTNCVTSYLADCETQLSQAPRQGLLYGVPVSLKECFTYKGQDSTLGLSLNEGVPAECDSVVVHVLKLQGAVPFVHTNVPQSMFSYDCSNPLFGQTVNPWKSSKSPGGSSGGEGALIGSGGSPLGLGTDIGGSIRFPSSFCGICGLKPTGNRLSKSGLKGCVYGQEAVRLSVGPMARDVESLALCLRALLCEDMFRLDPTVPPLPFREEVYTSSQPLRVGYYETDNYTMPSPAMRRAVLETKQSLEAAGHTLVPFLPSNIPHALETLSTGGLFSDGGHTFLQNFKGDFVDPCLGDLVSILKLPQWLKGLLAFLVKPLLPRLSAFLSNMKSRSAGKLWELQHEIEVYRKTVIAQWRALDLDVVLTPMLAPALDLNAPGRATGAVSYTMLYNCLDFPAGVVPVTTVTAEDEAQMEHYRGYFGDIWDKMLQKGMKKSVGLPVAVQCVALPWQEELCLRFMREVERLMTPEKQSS

SMILES | IC50 (human recombinant FAAH) | IC50 (human recombinant MAGL)
COc1ccc(OC(=O)NC2CCCCCC2)cc1-c1cncc(-c2ncn[nH]2)c1 [Example 237, 3-(5-(1H-1,2,4-triazol-5-yl)pyridin-3-yl)-4-methoxyphenyl cycloheptylcarbamate] | 100 to 1000 nM | > 10000 nM
COc1ccc(OC(=O)NCC2CCCCC2)cc1-c1cncc(-c2nccs2)c1 [Example 122, 4-methoxy-3-(5-(thiazol-2-yl)pyridin-3-yl)phenyl (cyclohexylmethyl)carbamate] | 100 to 1000 nM | ~10000 nM
CCCCCCCNC(=O)Oc1cccc(-c2cncc(C(=O)NO)c2)c1 [Example 22, 3-(5-(hydroxycarbamoyl)pyridin-3-yl)phenyl heptylcarbamate] | 10 to 1000 nM | > 1000 nM
CN(C)c1ccc(OC(=O)NCC2CCCCC2)cc1-c1cncc(-c2nnco2)c1 [Example 181, 3-(5-(1,3,4-oxadiazol-2-yl)pyridin-3-yl)-4-(dimethylamino)phenyl (cyclohexylmethyl)carbamate] | ~1000 nM | > 10000 nM
O=C(NC1CCCCCC1)Oc1cccc(-c2cncc(C(F)(F)F)c2)c1 [Example 34, 3-(5-(trifluoromethyl)pyridin-3-yl)phenyl cycloheptylcarbamate] | 100 to 1000 nM | > 10000 nM
O=C(NCC1CCCCC1)Oc1cccc(-c2cncc(-c3ccc[nH]3)c2)c1 [Example 36, 3-(5-(1H-pyrrol-2-yl)pyridin-3-yl)phenyl (cyclohexylmethyl)carbamate] | 100 to 1000 nM | ~10000 nM
COc1ccc(OC(=O)NC2CCCC2)cc1-c1cncc(-c2nnco2)c1 [Example 169, 3-(5-(1,3,4-oxadiazol-2-yl)pyridin-3-yl)-4-methoxyphenyl cyclopentylcarbamate] | 10 to 100 nM | > 10000 nM
Cc1cc(OC(=O)NC2CCCCC2)cc(-c2cncc(-c3ncco3)c2)c1 [Example 101, 3-methyl-5-(5-(oxazol-2-yl)pyridin-3-yl)phenyl cyclohexylcarbamate] | > 1000 nM | > 10000 nM
O=C(NC1CCCCC1)Oc1cccc(-c2cncc(-c3cccs3)c2)c1 [Example 63, 3-(5-(thiophen-2-yl)pyridin-3-yl)phenyl cyclohexylcarbamate] | 10 to 100 nM | > 10000 nM
CCCCCCCCNC(=O)Oc1cc(OC)cc(-c2cncc(-c3nnco3)c2)c1 [Example 174, 3-(5-(1,3,4-oxadiazol-2-yl)pyridin-3-yl)-5-methoxyphenyl octylcarbamate] | 1 to 10 nM | ~10000 nM
O=C(NC1CC2(CCC2)C1)Oc1cccc(-c2cncc(-c3nnco3)c2)c1 [Example 147, 3-(5-(1,3,4-oxadiazol-2-yl)pyridin-3-yl)phenyl spiro[3.3]heptan-2-ylcarbamate] | 10 to 100 nM | > 10000 nM
COc1ccc(OC(=O)NC2CCCCC2)cc1-c1cncc(-c2ccno2)c1 [Example 113, 3-(5-(isoxazol-5-yl)pyridin-3-yl)-4-methoxyphenyl cyclohexylcarbamate] | ~100 nM | > 10000 nM
O=C(NCc1ccccc1)Oc1cccc(-c2cncc(-c3nnco3)n2)c1 [Example 265, 3-(6-(1,3,4-oxadiazol-2-yl)pyrazin-2-yl)phenyl benzylcarbamate] | 100 to 1000 nM | > 10000 nM
COc1ccc(OC(=O)NCc2ccccc2)cc1-c1cncc(-c2ccc[nH]2)c1 [Example 43, 3-(5-(1H-pyrrol-2-yl)pyridin-3-yl)-4-methoxyphenyl benzylcarbamate] | > 1000 nM | > 10000 nM
CN(C)c1ccc(OC(=O)NCc2ccccc2)cc1-c1cncc(-c2nnco2)c1 [Example 182, 3-(5-(1,3,4-oxadiazol-2-yl)pyridin-3-yl)-4-(dimethylamino)phenyl benzylcarbamate] | > 1000 nM | > 10000 nM
Cc1ccc(-c2cncc(-c3ncco3)c2)cc1OC(=O)NC1CCCCC1 [Example 95, 2-methyl-5-(5-(oxazol-2-yl)pyridin-3-yl)phenyl cyclohexylcarbamate] | > 1000 nM | > 1000 nM
CCCCCCCCNC(=O)Oc1ccc(O)c(-c2cncc(-c3nnn[nH]3)c2)c1 [Example 244, 3-(5-(1H-tetrazol-5-yl)pyridin-3-yl)-4-hydroxyphenyl octylcarbamate] | 100 to 1000 nM | > 10000 nM
COc1ccc(OC(=O)NCc2ccccc2)cc1-c1cncc(-c2ccco2)c1 [Example 55, 3-(5-(furan-2-yl)pyridin-3-yl)-4-methoxyphenyl benzylcarbamate] | ~1000 nM | ~10000 nM
CSc1ccc(OC(=O)NCC2CCCCC2)cc1-c1cncc(-c2nnco2)c1 [Example 187, 3-(5-(1,3,4-oxadiazol-2-yl)pyridin-3-yl)-4-(methylthio)phenyl (cyclohexylmethyl) carbamate] | 100 to 1000 nM | > 10000 nM

SMILES | IC50 (human recombinant FAAH) | IC50 (human recombinant MAGL)
O=C(NC1CCCCCC1)Oc1cccc(-c2cc(-c3nnco3)ccn2)c1 [Example 262, 3-(4-(1,3,4-oxadiazol-2-yl)pyridin-2-yl)phenyl cycloheptylcarbamate] | 10 to 100 nM | > 1000 nM
CCCCCCCCNC(=O)Oc1cccc(-c2cncc(C=O)c2)c1 [Example 16, 3-(5-formylpyridin-3-yl)phenyl octylcarbamate] | 10 to 100 nM | 1000 to 10000 nM
CCCCCCCCNC(=O)Oc1cccc(-c2cncc(-c3nncs3)c2)c1 [Example 207, 3-(5-(1,3,4-thiadiazol-2-yl)pyridin-3-yl)phenyl octylcarbamate] | 1 to 10 nM | ~10000 nM
Cc1ccc(-c2cncc(-c3ncco3)c2)cc1OC(=O)NC1CCCCCCC1 [Example 98, 2-methyl-5-(5-(oxazol-2-yl)pyridin-3-yl)phenyl cyclooctylcarbamate] | > 1000 nM | ~1000 nM
CCCCCCCNC(=O)Oc1cccc(-c2cncc(C=O)c2)c1 [Example 15, 3-(5-formylpyridin-3-yl)phenyl heptylcarbamate] | 10 to 100 nM | 10000 to 50000 nM
O=C(NC1CCCCCC1)Oc1cccc(-c2cncc(-c3ncno3)c2)c1 [Example 206, 3-(5-(1,2,4-oxadiazol-5-yl)pyridin-3-yl)phenyl cycloheptylcarbamate] | 10 to 100 nM | > 10000 nM
Cc1ccc(-c2cncc(-c3ncco3)c2)cc1OC(=O)NC1CCC(C)CC1 (centres unmarked) [Example 96, 2-methyl-5-(5-(oxazol-2-yl)pyridin-3-yl)phenyl (4-methylcyclohexyl)carbamate] | > 1000 nM | > 10000 nM
O=C(NC1CCCCC1)Oc1ccc(F)c(-c2cncc(-c3nnco3)c2)c1 [Example 192, 3-(5-(1,3,4-oxadiazol-2-yl)pyridin-3-yl)-4-fluorophenyl cyclohexylcarbamate] | 10 to 100 nM | > 10000 nM
CN(C)c1ccc(OC(=O)NC2CCCCC2)cc1-c1cncc(-c2nnco2)c1 [Example 184, 3-(5-(1,3,4-oxadiazol-2-yl)pyridin-3-yl)-4-(dimethylamino)phenyl cyclohexylcarbamate] | > 1000 nM | > 10000 nM
O=C(NC1CCCCC1)Oc1cccc(-c2cncc(-c3ncno3)c2)c1 [Example 205, 3-(5-(1,2,4-oxadiazol-5-yl)pyridin-3-yl)phenyl cyclohexylcarbamate] | 10 to 100 nM | > 10000 nM
O=C(NC1CCCCCC1)Oc1cccc(-c2cncc(-c3ccc[nH]3)c2)c1 [Example 40, 3-(5-(1H-pyrrol-2-yl)pyridin-3-yl)phenyl cycloheptylcarbamate] | 10 to 100 nM | ~10000 nM
CC1CCC(NC(=O)Oc2ccc(OC(F)(F)F)c(-c3cncc(-c4ncco4)c3)c2)CC1 (centres unmarked) [Example 90, 3-(5-(oxazol-2-yl)pyridin-3-yl)-4-(trifluoromethoxy)phenyl (4-methylcyclohexyl)carbamate] | 100 to 1000 nM | > 1000 nM
O=C(NC1CCCCCC1)Oc1cccc(-c2cncc(-c3ccco3)c2)c1 [Example 52, 3-(5-(furan-2-yl)pyridin-3-yl)phenyl cycloheptylcarbamate] | 10 to 100 nM | ~10000 nM
O=C(NC1CCCCC1)Oc1cccc(-c2cncc(-c3ncco3)c2)c1 [Example 76, 3-(5-(oxazol-2-yl)pyridin-3-yl)phenyl cyclohexylcarbamate] | 10 to 1000 nM | 1000 to 10000 nM
COc1ccc(OC(=O)NC2CCCCCC2)cc1-c1cncc(-c2ccc[nH]2)c1 [Example 46, 3-(5-(1H-pyrrol-2-yl)pyridin-3-yl)-4-methoxyphenyl cycloheptylcarbamate] | 100 to 1000 nM | > 10000 nM
Cc1cc(OC(=O)NC2CCCCCC2)cc(-c2cncc(-c3ncco3)c2)c1 [Example 103, 3-methyl-5-(5-(oxazol-2-yl)pyridin-3-yl)phenyl cycloheptylcarbamate] | 100 to 1000 nM | ~10000 nM
O=C(NC1CCCCC1)Oc1cccc(-c2cncc(C(F)(F)F)c2)c1 [Example 33, 3-(5-(trifluoromethyl)pyridin-3-yl)phenyl cyclohexylcarbamate] | 100 to 1000 nM | > 10000 nM
O=C(NC1CCCC1)Oc1cccc(-c2cncc(C(F)(F)F)c2)c1 [Example 32, 3-(5-(trifluoromethyl)pyridin-3-yl)phenyl cyclopentylcarbamate] | 10 to 100 nM | > 10000 nM
